The compounds below were run against L-type calcium channel (Cavia porcellus) (assay: Displacement of [3H]diltiazem from L-type calcium channel of guinea pig striated muscle).

Structure (SMILES)	Ki [nM]
COc1ccc([C@@H]2Sc3ccccc3N(CCN(C)C)C(=O)[C@@H]2C)cc1 [(2R,3S)-5-(2-Dimethylamino-ethyl)-2-(4-methoxy-phenyl)-3-methyl-2,3-dihydro-5H-benzo[b][1,4]thiazepin-4-one]	540
COc1ccc([C@@H]2Sc3cc(OC)ccc3N(CCN(C)C)C(=O)[C@@H]2C)cc1 [(2R,3S)-5-(2-Dimethylamino-ethyl)-8-methoxy-2-(4-methoxy-phenyl)-3-methyl-2,3-dihydro-5H-benzo[b][1,4]thiazepin-4-one]	85
COc1ccc([C@@H]2Sc3cc(OC)ccc3N(CCN(C)C)C(=O)[C@@H]2OC(C)=O)cc1 [Acetic acid (2S,3S)-5-(2-dimethylamino-ethyl)-8-methoxy-2-(4-methoxy-phenyl)-4-oxo-2,3,4,5-tetrahydro-benzo[b][1,4]thiazepin-3-yl ester]	42
